The target of one assay is p38α (Homo sapiens, UniProt Q16539). Particulars: 10 and 100 nM. Here is the method: Phosphorylation of 3.5 µg of p38 substrate was detected in a reaction having 1 µCi [γ-^32P] ATP (Perkin Elmer Life Sciences), 50 µM ATP, 50 ng active recombinant p38 in 50 µL kinase buffer containing 25 mM Tris-HCl, pH 7.5, 10 mM MgCl2, 5 mM β-glycerophosphate, 0.1 mM Na3VO4 and 2 mM DTT. The reaction was incubated at 30°C for 10 minutes and 25 µL of the reaction was spotted on Whatman P81 filter paper. The filter paper was washed 3 times in 0.5% phosphoric acid, air dried and counted using Beckman LS6500 multipurpose scintillation counter. Percent p38 inhibition was graphed using GraphPad Prism software 5.0.

The target in the next assay is T1, RET(V804M) (Homo sapiens, UniProt P07949, V804M).
T1 construct: purchased Ambit Biosciences (KINOMEscan)
The assay is described as follows: Ambit kinase profiling, competition binding. Particulars: compound concentration 10 uM, read-out: Percent Competition. An excerpt:
(§1) Supplement pone.0044653.s004.xls, sheet "Compound 122" | column: Percent Competition

Another assay concerns the target T2, CAMKK2 (Homo sapiens, UniProt Q96RR4).
T2 construct: purchased Ambit Biosciences (KINOMEscan)
The assay is described as follows: Ambit kinase profiling, competition binding. The conditions noted are these: compound concentration 10 uM, read-out: Percent Competition.
Description: as §1

A further assay deals with T3, KIT(V559D,V654A) (Homo sapiens, UniProt P10721, V559D/V654A).
T3 construct: purchased Ambit Biosciences (KINOMEscan)
The assay is described as follows: Ambit kinase profiling, competition binding. Particulars: compound concentration 10 uM, read-out: Percent Competition.
Description: as §1

For the next assay, the target named is T4, FLT3(K663Q) (Homo sapiens, UniProt P36888, K663Q).
T4 construct: purchased Ambit Biosciences (KINOMEscan)
Briefly: Ambit kinase profiling, competition binding. The conditions noted are these: compound concentration 10 uM, read-out: Percent Competition.
Description: as §1

Another assay has as its target T5, HIPK1 (Homo sapiens, UniProt Q86Z02).
T5 construct: purchased Ambit Biosciences (KINOMEscan)
The assay is described as follows: Ambit kinase profiling, competition binding. The conditions noted are these: compound concentration 10 uM, read-out: Percent Competition.
Description: as §1

The target of the next assay is T6, EPHA5 (Homo sapiens, UniProt P54756).
T6 construct: purchased Ambit Biosciences (KINOMEscan)
The assay is described as follows: Ambit kinase profiling, competition binding. The conditions noted are these: compound concentration 10 uM.
Description: as §1

The next assay deals with T7, MLK3 (Homo sapiens, UniProt Q16584).
T7 construct: purchased Ambit Biosciences (KINOMEscan)
Briefly: Ambit kinase profiling, competition binding. Particulars: compound concentration 10 uM.
Description: as §1

The target in another assay is T8, PIK3CG (Homo sapiens, UniProt P48736).
T8 construct: purchased Ambit Biosciences (KINOMEscan)
Briefly: Ambit kinase profiling, competition binding. The conditions noted are these: compound concentration 10 uM, read-out: Percent Competition.
Description: as §1

The next assay deals with T9, FYN (Homo sapiens, UniProt P06241).
T9 construct: purchased Ambit Biosciences (KINOMEscan)
The assay is described as follows: Ambit kinase profiling, competition binding. The conditions noted are these: compound concentration 10 uM, read-out: Percent Competition.
Description: as §1

Assay [1] has as its target T10, RPS6KA5(Kin.Dom.1-N-terminal) (Homo sapiens, UniProt O75582).
T10 construct: RPS6KA5(Kin.Dom.1-N-terminal); purchased Ambit Biosciences (KINOMEscan)
The assay is described as follows: Ambit kinase profiling, competition binding. Particulars: compound concentration 10 uM, read-out: Percent Competition.
Description: as §1

For a further assay, the target named is T11, FGFR3(G697C) (Homo sapiens, UniProt P22607, G697C).
T11 construct: purchased Ambit Biosciences (KINOMEscan)
The assay is described as follows: Ambit kinase profiling, competition binding. Particulars: compound concentration 10 uM, read-out: Percent Competition.
Description: as §1

For the next assay, the target named is T12, BIKE (Homo sapiens, UniProt Q9NSY1).
T12 construct: purchased Ambit Biosciences (KINOMEscan)
Briefly: Ambit kinase profiling, competition binding. Particulars: compound concentration 10 uM, read-out: Percent Competition.
Description: as §1

These results are taken from PMC3445516 (PLoS ONE, 2012).

T12 sequence (Q9NSY1 whole entry): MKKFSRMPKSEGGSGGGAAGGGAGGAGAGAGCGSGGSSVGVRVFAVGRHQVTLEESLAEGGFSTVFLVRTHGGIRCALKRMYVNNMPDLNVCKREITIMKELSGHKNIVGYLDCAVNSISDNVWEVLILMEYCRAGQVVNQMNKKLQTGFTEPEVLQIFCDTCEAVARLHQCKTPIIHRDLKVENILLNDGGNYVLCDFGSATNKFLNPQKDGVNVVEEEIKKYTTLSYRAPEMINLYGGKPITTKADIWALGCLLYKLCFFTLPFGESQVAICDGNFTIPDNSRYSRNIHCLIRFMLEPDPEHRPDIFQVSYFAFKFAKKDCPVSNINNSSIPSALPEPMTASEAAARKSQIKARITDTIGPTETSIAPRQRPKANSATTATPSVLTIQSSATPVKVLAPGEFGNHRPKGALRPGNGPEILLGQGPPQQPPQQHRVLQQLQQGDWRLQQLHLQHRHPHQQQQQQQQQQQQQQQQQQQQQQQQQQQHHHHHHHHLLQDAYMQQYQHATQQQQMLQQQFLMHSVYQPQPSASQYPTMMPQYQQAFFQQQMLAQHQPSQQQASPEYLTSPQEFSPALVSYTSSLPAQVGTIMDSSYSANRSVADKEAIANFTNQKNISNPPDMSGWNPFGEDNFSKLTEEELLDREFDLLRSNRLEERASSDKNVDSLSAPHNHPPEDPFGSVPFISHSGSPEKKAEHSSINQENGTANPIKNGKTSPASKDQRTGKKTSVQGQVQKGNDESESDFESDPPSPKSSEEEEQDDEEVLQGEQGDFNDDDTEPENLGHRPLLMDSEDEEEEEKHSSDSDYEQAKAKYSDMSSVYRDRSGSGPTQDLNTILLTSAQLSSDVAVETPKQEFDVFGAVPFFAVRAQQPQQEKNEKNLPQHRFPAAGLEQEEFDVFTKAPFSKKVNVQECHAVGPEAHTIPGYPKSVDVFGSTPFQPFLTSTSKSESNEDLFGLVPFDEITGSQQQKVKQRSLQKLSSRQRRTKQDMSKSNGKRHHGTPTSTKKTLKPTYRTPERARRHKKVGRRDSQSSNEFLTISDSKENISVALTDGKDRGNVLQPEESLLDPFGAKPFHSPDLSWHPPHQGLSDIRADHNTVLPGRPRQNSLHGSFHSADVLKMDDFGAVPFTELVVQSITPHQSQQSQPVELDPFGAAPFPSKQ
T7 sequence (Q16584 whole entry): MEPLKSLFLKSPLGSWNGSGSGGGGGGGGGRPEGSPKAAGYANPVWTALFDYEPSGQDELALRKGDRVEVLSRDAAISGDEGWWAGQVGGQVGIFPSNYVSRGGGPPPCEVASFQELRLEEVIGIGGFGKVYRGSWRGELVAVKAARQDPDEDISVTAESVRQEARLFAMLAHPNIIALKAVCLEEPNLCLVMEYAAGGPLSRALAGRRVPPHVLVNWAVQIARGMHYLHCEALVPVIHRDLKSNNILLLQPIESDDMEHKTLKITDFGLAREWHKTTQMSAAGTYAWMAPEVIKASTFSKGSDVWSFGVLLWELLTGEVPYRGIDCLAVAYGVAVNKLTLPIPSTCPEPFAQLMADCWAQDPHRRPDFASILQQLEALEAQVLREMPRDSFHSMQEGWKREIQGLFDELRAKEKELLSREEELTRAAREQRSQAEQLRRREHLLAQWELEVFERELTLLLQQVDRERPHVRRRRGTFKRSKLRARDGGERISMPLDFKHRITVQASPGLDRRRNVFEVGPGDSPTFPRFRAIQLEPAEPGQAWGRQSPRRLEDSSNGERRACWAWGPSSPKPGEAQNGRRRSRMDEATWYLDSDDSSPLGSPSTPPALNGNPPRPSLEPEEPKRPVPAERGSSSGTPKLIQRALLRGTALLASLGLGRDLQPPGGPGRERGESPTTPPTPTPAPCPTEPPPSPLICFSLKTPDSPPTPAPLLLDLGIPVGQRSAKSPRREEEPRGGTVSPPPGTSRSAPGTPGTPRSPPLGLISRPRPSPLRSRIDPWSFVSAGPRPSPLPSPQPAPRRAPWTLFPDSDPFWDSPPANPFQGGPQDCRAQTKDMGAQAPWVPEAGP
Chain of p38α (Q16539 whole entry): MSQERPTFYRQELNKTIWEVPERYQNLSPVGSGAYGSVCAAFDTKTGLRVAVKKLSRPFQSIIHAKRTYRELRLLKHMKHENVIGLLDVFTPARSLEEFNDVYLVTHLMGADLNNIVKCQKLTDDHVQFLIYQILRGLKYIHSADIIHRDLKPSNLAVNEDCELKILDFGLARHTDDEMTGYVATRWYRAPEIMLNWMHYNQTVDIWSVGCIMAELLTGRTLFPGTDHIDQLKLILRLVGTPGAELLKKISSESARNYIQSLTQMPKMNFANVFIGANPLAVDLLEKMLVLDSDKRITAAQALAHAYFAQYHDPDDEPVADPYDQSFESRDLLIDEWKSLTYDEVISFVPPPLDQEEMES
T2 sequence (Q96RR4 whole entry): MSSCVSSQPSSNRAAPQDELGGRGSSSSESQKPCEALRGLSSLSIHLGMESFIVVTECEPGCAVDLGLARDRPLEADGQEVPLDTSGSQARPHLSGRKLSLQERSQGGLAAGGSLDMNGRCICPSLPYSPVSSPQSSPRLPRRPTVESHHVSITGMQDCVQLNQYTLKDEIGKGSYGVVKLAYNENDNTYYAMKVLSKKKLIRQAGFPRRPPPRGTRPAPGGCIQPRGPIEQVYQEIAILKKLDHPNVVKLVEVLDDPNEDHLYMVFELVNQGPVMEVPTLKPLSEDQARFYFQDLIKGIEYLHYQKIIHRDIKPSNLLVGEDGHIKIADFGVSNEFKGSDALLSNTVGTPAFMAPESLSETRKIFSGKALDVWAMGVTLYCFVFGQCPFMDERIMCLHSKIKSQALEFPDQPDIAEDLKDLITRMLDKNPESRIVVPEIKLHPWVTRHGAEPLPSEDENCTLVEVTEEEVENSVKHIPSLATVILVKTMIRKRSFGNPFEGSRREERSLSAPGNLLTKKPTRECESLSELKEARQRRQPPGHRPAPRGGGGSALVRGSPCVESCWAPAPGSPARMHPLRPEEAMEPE
T1 sequence (P07949 29-1114 V804M): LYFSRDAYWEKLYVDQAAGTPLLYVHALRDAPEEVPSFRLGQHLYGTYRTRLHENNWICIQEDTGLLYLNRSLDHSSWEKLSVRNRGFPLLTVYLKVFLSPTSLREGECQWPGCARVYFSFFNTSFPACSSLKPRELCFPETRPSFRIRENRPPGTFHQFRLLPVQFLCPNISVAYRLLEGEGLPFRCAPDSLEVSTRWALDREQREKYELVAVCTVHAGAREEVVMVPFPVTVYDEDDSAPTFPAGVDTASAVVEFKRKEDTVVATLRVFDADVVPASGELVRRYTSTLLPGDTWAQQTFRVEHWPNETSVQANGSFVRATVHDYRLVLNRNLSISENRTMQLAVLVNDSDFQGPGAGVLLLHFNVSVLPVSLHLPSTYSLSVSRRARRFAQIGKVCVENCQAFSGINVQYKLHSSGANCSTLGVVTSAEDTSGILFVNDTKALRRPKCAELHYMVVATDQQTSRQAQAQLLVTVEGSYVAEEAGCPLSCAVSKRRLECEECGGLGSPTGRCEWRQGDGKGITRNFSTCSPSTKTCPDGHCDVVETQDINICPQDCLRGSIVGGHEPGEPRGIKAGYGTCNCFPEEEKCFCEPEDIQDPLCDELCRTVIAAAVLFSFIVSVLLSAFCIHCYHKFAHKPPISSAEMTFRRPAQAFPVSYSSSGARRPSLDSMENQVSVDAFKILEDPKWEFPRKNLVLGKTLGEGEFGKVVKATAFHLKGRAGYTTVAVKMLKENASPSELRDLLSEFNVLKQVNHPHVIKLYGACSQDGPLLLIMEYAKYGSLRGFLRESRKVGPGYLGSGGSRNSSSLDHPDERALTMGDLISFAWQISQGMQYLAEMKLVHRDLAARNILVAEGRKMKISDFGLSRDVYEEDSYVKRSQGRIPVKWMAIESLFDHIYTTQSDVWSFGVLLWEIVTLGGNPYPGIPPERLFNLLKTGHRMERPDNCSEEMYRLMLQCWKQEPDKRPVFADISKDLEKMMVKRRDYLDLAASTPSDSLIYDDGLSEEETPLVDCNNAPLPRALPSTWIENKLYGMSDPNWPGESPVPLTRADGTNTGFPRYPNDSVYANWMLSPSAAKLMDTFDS
T11 sequence (P22607 23-806 G697C): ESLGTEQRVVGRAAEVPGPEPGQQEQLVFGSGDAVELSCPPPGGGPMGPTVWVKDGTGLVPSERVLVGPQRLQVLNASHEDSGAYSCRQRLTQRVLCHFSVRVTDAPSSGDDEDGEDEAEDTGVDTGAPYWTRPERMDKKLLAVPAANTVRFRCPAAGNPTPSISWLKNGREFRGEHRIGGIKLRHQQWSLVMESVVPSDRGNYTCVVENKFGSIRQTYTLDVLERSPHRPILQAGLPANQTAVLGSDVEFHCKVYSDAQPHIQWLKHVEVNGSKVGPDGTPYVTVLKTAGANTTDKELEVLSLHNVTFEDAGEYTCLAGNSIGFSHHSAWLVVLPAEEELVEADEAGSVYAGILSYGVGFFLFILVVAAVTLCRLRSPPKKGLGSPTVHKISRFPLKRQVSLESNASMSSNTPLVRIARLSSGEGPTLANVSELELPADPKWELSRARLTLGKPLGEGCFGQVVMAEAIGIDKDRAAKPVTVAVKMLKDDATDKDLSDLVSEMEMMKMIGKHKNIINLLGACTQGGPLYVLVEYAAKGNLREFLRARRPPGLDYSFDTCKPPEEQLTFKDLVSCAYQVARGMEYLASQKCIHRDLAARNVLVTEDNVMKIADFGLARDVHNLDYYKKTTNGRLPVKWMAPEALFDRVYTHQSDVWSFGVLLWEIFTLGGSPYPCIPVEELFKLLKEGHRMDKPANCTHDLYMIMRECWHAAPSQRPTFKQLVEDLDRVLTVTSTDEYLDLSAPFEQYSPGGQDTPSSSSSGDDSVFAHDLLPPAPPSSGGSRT

With `CC(O)CNc1cc(-c2[nH]c3cccnc3c2-c2ccc(F)cc2)ccn1` (stereo not shown) [Compound 140], at p38α, the “inhibition of p38α” value was “most potent”.
Consider `Fc1ccc(-c2c(-c3ccncc3)[nH]c3nccnc23)cc1` [RO1155697-000-005], for which the inhibition at 10 µM at RET(V804M), at CAMKK2, at KIT(V559D,V654A), at FLT3(K663Q), at HIPK1 and on PIK3CG was less than 50% each time. In addition, the inhibition at 10 µM (on FYN; in [1]; at FGFR3(G697C); on BIKE) was less than 50% throughout. Moreover, the “Percent Competition” value on EPHA5 and at MLK3 was less than 50% in each case.
